Assays:
Type in all cases: cell-based
[1] = target: T1, L-type calcium channel (LTCC) (Rattus norvegicus, UniProt P22002); test: whole-cell patch clamp of ICa,L in A7r5 cells (stimulation); details: read-out: % stimulation above basal at 10 nM
T1 construct: gene Cacna1c; native channel in A7r5 cells

[2] = target: T1, L-type calcium channel (LTCC); test: whole-cell patch clamp of ICa,L in A7r5 cells; details: read-out: % of basal current at 1 μM
[3] = target: T1, L-type calcium channel (LTCC); test: whole-cell patch clamp of basal and BAY-stimulated ICa,L in A7r5 cells

T1 sequence (P22002 whole entry): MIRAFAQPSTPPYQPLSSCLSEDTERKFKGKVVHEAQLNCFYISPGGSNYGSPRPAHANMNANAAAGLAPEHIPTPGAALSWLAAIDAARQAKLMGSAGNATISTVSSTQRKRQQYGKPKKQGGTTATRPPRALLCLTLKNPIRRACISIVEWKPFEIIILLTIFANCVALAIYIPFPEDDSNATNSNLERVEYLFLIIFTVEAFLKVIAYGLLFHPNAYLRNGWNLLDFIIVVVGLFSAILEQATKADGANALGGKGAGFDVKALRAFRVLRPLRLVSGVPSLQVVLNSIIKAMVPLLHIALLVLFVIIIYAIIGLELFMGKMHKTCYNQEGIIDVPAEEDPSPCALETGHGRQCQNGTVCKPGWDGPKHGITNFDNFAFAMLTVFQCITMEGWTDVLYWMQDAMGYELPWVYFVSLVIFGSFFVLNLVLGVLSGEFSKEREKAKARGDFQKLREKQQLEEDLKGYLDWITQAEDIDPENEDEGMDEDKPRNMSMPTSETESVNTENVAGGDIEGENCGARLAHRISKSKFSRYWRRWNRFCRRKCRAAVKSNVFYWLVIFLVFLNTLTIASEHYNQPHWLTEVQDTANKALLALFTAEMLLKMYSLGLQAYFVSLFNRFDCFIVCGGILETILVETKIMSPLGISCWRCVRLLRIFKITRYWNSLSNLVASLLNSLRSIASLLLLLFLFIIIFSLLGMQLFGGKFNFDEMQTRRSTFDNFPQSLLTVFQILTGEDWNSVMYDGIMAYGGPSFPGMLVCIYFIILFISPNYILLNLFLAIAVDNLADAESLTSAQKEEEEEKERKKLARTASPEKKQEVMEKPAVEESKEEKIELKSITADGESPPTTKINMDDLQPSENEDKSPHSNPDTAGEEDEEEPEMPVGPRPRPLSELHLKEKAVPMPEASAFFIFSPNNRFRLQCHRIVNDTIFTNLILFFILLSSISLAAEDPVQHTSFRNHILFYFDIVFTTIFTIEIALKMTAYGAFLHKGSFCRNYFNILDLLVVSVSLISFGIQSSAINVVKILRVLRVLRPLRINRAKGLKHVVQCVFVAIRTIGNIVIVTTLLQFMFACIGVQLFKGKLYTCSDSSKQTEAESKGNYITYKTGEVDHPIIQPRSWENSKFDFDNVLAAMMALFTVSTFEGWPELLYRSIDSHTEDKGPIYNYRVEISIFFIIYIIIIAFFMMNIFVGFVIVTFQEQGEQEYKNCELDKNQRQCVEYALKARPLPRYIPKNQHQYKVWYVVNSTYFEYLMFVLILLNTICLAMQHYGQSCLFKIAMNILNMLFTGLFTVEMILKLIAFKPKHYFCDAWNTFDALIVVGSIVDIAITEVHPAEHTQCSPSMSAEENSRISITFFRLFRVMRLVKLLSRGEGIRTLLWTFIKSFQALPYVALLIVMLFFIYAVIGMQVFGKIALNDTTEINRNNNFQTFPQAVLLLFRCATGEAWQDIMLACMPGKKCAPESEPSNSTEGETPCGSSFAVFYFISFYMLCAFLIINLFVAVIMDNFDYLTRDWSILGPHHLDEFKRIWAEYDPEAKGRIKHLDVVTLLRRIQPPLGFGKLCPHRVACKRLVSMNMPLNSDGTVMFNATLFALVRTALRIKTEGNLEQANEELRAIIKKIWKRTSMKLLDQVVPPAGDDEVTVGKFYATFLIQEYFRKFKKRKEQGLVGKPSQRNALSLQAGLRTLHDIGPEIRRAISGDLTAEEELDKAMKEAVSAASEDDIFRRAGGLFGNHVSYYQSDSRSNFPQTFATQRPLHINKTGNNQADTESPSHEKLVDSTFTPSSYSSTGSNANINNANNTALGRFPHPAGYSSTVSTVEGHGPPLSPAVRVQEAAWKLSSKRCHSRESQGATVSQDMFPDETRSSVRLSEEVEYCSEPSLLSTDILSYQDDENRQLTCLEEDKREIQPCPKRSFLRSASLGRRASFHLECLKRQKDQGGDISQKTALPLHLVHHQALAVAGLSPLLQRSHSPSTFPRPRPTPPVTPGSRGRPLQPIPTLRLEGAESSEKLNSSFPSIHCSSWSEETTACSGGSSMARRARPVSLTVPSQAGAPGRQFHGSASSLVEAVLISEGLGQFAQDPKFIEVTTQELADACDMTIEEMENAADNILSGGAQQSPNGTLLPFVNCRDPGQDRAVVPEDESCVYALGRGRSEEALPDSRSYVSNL

In the case of `COC(=O)C1=C(C)NC(C)=C([N+](=O)[O-])[C@H]1c1ccccc1C(F)(F)F` [BAY, (−)-Bay K8644], the activation at 0.01 µM [1] is reported as 74.8 ± 5.7%.

For `COC(=O)C1=C(C)NC(C)=C(C(=O)OC)C1c1ccccc1[N+](=O)[O-]` [NIF, nifedipine], the activity at 1 µM [2] was 20.6 ± 2.2%.

Work on `CC(C)CCC[C@@H](C)[C@H]1CC[C@H]2[C@@H]3CC=C4C[C@@H](O)CC[C@]4(C)[C@H]3CC[C@]12C` [cholesterol] yielded an inhibition at 100 µM [3] of 73.9 ± 16.8%.
